Data as given in ChEMBL document CHEMBL1201862, “PubChem BioAssay data set” (2004).
Each block holds one compound with its values, some of them ahead of it. Active and inactive are the calls of the source.

Legend:
[1] = molecular target: DNA (cytosine-5)-methyltransferase 1 (Homo sapiens, UniProt P26358); assay: DNMT1 methyltransferase inhibitors, confirmation, biochemical, fluorescent molecular beacon (AID 602386); type: functional
Cysteine protease ATG4B = molecular target: T1, Cysteine protease ATG4B (Homo sapiens, UniProt Q9Y4P1); type: functional;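 further: Fluorescence-based dose-response confirmation assay measuring inhibition of ATG4B activity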
T1 sequence (Q9Y4P1 whole entry): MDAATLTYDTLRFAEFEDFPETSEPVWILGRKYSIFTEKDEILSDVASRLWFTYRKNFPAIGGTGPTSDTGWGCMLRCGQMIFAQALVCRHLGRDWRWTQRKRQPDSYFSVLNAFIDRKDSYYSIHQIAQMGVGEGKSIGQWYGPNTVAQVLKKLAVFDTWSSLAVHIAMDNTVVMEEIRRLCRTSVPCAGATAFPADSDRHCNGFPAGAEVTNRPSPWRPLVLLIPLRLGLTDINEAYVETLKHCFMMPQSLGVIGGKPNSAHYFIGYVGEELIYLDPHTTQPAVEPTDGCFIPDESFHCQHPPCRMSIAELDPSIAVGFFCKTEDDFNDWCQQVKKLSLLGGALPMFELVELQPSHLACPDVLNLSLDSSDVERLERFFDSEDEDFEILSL

Phospholipase A2 = Phospholipase A2 (Homo sapiens, UniProt P04054); type: functional;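 further: confirmatory dose-response counterscreen on phospholipase A2, testing hits that came from an ultra-high-throughput screen for ATG4B inhibitors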
Chain of Phospholipase A2 (P04054 whole entry): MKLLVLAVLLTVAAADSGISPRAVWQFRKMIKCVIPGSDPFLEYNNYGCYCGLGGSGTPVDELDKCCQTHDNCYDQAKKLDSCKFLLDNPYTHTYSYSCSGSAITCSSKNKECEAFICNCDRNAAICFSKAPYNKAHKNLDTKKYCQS

Caspase-6 = molecular target: T2, Caspase-6 (Homo sapiens, UniProt P55212); assay: human caspase-6 inhibitors, dose response, biochemical, VEID-R110 fluorescence, cherry-pick (AID 720632)
T2 sequence (P55212 whole entry): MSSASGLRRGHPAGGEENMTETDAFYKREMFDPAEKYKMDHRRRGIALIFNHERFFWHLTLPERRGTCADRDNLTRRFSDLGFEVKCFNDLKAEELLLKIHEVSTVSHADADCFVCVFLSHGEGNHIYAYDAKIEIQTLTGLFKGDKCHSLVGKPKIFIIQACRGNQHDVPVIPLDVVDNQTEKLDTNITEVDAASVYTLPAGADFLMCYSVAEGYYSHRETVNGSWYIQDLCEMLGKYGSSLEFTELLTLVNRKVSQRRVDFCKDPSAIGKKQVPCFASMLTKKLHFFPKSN

SUMO-activating enzyme [2] = molecular target: T3, SUMO-activating enzyme (Homo sapiens, UniProt Q9UBT2); assay: SUMOylation inhibitor hit validation, confirmation, SUMOylation inhibitor project, biochemical, AlphaScreen (AID 2018); type: functional
T3 sequence (Q9UBE0 whole entry): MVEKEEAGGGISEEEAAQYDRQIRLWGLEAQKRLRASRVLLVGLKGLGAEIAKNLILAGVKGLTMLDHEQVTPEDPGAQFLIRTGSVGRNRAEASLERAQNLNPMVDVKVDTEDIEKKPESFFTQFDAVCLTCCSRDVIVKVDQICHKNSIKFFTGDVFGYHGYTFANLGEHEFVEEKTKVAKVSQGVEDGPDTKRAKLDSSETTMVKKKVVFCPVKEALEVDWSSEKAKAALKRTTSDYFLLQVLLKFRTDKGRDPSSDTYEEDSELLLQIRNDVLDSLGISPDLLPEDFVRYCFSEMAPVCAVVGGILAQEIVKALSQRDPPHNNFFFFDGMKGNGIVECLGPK
T3 sequence (Q9UBT2 whole entry): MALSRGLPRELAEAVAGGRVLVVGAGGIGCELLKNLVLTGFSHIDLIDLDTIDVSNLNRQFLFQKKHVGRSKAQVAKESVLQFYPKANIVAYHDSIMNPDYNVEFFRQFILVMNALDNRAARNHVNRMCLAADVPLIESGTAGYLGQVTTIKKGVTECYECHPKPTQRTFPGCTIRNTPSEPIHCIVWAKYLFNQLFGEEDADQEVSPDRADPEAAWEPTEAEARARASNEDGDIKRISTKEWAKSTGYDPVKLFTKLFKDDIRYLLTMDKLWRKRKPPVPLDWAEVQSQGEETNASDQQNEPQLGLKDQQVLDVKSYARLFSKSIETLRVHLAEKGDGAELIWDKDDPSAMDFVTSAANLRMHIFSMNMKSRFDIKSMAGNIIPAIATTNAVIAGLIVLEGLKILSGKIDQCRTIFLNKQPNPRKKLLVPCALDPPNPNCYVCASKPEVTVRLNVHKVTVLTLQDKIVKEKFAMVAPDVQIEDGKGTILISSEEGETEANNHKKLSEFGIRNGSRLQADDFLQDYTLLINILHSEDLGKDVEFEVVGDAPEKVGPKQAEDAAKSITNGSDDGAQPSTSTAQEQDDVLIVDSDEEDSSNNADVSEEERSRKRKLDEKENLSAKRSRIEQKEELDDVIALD

[3] = molecular target: Induced myeloid leukemia cell differentiation protein Mcl-1 (Homo sapiens, UniProt Q07820); type: functional
Chain of Induced myeloid leukemia cell differentiation protein Mcl-1 (Q07820 whole entry): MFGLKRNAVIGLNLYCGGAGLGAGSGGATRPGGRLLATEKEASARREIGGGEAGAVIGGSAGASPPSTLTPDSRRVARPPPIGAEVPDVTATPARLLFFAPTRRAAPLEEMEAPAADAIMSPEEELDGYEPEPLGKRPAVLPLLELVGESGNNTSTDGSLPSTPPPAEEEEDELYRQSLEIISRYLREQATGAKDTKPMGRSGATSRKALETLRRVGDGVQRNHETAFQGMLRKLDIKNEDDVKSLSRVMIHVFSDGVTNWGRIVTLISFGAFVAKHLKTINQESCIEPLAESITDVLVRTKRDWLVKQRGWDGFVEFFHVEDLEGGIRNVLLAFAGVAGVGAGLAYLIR

SUMO-activating enzyme [4] = molecular target: T3, SUMO-activating enzyme; assay: inhibitors of in vitro SUMOylation cascade, primary screen, biochemical, HTRF, uHTS (AID 2006); type: protein-complex assay
[5] = molecular target: Beta-2 adrenergic receptor (Homo sapiens, UniProt P07550); assay: beta2AR agonists driving receptor internalization, dose response, cell-based, FAP fluorogen, flow cytometry, cherry pick 1 (AID 588763); type: functional
Chain of Beta-2 adrenergic receptor (P07550 whole entry): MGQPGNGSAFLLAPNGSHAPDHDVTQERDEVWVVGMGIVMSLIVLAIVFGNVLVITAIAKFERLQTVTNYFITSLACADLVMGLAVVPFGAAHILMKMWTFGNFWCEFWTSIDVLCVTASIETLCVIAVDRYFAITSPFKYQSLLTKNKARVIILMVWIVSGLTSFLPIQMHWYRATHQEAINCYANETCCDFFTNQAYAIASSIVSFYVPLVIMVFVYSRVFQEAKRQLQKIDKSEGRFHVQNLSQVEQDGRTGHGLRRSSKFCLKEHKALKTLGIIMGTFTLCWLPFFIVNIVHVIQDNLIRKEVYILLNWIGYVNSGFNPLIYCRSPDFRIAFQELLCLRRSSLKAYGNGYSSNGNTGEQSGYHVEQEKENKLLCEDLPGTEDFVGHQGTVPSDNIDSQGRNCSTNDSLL

[6] = C. albicans growth with fluconazole, confirmation, fluorescence, retest (AID 2467); type: functional, cell-based
Caspase-3 = molecular target: T4, Caspase-3 (Homo sapiens, UniProt P42574); type: functional;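 further: Dose-response selectivity test against caspase-3 for candidate inhibitors of sentrin-specific proteases (SENPs)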
T4 sequence (P42574 whole entry): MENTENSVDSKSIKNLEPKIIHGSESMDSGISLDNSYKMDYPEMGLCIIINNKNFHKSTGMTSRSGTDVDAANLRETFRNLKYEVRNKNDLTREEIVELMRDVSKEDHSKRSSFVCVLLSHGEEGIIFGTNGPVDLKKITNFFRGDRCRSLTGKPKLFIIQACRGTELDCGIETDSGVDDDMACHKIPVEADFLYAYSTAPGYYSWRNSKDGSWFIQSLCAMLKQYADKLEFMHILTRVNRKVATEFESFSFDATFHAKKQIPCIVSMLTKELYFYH

[7] = molecular target: T5, Sentrin-specific protease 7 (Homo sapiens, UniProt Q9BQF6); type: functional;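 further: Luminescence-based dose-response confirmation of ultra-high-throughput screening hits, measuring inhibition of SENP7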
T5 sequence (Q9BQF6 whole entry): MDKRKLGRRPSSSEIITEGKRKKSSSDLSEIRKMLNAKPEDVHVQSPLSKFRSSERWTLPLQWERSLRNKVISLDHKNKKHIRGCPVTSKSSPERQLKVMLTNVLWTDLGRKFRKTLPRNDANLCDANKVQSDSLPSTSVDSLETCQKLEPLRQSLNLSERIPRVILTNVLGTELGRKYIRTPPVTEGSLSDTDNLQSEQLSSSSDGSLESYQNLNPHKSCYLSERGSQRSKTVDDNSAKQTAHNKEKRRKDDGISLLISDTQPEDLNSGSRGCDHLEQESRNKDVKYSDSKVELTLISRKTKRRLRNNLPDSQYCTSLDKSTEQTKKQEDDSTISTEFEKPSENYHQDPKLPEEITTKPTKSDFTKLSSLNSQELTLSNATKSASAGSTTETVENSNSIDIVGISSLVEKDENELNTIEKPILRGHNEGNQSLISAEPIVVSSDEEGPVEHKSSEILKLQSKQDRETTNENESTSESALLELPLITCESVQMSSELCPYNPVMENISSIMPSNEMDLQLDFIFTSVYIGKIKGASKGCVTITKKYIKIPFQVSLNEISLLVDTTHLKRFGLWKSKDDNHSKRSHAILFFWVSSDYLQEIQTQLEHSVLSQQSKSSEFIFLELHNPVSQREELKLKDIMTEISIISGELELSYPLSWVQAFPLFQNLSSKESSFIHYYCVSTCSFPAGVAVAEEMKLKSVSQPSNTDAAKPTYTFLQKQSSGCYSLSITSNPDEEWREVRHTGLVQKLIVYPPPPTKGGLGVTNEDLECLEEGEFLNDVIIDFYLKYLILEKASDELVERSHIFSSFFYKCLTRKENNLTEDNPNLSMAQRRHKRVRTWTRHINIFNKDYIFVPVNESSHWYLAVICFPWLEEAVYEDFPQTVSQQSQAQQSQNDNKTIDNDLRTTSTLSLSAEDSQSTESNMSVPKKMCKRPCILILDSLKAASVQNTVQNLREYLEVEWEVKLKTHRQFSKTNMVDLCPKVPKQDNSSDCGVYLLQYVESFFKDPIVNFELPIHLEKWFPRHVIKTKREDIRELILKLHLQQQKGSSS

[8] = molecular target: T6, Sentrin-specific protease 6 (Homo sapiens, UniProt Q9GZR1); type: functional;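 further: Luminescence-based dose-response confirmatory assay of SENP6 inhibition, following up an ultra-high-throughput screen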
T6 sequence (Q9GZR1 whole entry): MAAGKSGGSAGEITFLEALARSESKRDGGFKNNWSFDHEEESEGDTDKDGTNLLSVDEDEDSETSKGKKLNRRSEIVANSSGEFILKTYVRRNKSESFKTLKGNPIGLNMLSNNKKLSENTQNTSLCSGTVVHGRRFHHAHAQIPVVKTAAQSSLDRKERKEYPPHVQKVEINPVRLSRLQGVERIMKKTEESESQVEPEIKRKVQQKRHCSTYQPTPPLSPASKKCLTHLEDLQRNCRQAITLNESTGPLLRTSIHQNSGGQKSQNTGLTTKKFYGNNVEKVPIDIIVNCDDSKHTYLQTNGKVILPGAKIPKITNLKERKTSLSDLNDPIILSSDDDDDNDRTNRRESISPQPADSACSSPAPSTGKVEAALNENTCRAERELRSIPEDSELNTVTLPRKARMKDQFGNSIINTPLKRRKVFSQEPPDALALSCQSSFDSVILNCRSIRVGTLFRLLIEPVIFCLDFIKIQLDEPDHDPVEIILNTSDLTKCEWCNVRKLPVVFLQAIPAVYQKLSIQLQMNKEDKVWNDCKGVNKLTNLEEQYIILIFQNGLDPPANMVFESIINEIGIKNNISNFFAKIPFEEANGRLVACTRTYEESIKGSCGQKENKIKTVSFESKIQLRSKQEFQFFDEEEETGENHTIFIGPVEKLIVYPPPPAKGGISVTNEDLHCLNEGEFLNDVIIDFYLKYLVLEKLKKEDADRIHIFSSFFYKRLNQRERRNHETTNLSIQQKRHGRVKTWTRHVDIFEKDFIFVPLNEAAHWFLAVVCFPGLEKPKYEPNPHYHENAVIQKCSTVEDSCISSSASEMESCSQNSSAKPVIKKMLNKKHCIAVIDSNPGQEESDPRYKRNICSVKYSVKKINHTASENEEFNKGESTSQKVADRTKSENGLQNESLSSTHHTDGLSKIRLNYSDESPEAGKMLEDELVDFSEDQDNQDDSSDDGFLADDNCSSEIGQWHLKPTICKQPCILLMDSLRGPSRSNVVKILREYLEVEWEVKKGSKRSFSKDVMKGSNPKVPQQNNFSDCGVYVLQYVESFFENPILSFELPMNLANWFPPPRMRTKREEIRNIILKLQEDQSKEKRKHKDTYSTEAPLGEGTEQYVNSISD

[9] = HEp-2 cell cytotoxicity, dose response, cytotoxicity control for RSV inhibitor project, HTS (AID 2410); type: functional; conditions: human respiratory syncytial virus
HeLa = assay: HeLa cell cytotoxicity, dose response, cytotoxicity control for MITF activator project, CellTiter-Glo luminescence, cherry-pick samples (AID 540259); type: functional, cell-based; conditions: Homo sapiens
[10] = molecular target: FAD-linked sulfhydryl oxidase ALR (Homo sapiens, UniProt P55789); assay: inhibitors of human ALR sulfhydryl oxidase, dose response, biochemical, H2O2 detection, luminescence, cherry-pick (AID 493248)
Chain of FAD-linked sulfhydryl oxidase ALR (P55789 whole entry): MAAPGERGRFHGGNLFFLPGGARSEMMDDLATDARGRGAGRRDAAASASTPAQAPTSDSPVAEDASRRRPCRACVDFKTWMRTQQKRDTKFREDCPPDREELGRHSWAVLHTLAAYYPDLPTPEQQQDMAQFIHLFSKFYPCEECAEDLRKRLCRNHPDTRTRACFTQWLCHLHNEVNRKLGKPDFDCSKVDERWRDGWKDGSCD

[11] = molecular target: T7, Sentrin-specific protease 8 (Homo sapiens, UniProt Q96LD8); type: functional;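 further: luminescence read-out of SENP8 inhibition, dose-response confirmation following an ultra-high-throughput screen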
T7 sequence (Q96LD8 whole entry): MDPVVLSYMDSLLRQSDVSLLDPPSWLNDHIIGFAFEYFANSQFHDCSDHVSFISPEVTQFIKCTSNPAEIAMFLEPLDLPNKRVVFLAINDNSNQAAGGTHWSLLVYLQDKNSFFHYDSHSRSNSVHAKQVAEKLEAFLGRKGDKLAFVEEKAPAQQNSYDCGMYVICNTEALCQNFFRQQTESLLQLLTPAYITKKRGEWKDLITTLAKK

[12] = NIH-3T3 fibroblast cytotoxicity, dose response, cytotoxicity control, cell-based, fluorescence, Alamar Blue, secondary assay (AID 2327); type: functional;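 further: NIH-3T3 mouse fibroblasts cultured with fluconazole at 8 µg/mL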

Chain of DNA (cytosine-5)-methyltransferase 1 (P26358 whole entry): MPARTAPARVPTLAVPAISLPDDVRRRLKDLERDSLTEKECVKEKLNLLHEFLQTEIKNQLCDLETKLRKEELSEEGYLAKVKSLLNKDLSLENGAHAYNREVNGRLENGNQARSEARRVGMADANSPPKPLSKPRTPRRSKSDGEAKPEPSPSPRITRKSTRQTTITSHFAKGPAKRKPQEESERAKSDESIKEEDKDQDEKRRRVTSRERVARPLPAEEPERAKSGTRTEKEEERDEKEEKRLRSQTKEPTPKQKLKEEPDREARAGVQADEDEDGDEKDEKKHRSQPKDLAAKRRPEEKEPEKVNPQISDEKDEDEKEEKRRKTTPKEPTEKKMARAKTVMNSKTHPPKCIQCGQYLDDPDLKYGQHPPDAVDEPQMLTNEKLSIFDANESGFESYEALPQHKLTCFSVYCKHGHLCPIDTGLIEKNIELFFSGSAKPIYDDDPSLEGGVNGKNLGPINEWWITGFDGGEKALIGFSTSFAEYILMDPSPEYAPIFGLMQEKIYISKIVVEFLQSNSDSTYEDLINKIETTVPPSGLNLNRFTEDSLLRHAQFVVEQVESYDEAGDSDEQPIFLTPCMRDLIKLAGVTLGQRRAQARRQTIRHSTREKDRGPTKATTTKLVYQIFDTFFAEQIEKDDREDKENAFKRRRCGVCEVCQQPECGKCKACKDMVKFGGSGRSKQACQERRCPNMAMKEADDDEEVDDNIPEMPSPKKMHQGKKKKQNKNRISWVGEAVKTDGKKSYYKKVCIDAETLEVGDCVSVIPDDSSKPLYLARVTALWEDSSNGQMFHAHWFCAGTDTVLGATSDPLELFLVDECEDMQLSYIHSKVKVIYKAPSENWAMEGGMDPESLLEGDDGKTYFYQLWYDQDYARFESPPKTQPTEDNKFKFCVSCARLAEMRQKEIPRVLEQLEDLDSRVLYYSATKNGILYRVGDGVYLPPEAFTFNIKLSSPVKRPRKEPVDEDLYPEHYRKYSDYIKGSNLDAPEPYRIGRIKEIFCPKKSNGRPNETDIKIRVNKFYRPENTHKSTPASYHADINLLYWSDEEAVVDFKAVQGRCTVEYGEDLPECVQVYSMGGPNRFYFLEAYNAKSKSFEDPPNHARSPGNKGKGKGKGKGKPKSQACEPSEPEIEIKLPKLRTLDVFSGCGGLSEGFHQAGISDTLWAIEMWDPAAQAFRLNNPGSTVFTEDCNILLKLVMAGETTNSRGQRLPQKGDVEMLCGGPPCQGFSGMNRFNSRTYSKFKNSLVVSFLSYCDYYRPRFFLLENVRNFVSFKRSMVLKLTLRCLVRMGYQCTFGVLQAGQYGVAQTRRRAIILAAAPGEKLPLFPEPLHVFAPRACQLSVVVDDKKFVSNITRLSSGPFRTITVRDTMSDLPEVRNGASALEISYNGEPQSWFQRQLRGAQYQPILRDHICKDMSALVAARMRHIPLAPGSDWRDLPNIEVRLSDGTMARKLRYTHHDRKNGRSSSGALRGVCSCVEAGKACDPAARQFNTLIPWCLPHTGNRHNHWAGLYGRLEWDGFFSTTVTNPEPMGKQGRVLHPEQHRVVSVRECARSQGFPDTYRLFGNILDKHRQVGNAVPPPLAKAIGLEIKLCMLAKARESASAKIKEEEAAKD

IC50 [1]: 5.34 µM (active)
IC50 (Cysteine protease ATG4B): 4.31 µM (active)
IC50 (Phospholipase A2): 5.31 µM (active)
AC50 (Caspase-6): 24.2 µM (active)
IC50 (SUMO-activating enzyme [2]): 1.65 µM (active)
IC50 [3]: 2.27 µM (active)
IC50 (SUMO-activating enzyme [4]): 16.8 µM (active)
SMILES: CN(c1ccccc1)c1ccc(/C=C(\CCC(=O)O)c2nc3ccccc3s2)cc1[N+](=O)[O-]

IC50 (Cysteine protease ATG4B): 11 µM (active)
IC50 (Phospholipase A2): 12.6 µM (active)
SMILES: Cc1nc2c(C(=O)NCc3ccccc3Cl)cnn2c(O)c1Cl

EC50 [5]: 0.0813 µM (active)
SMILES: Cc1ccc(CS(=O)(=O)c2nc3c(c(N(C)C)n2)CCCC3)cc1

SMILES: CC(=O)Nc1cccc(-c2csc(Nc3ccc(C)cn3)n2)c1
EC50 [6]: 4.04 µM (active)
IC50 (Caspase-3): 39.7 µM (active)
IC50 [7]: 4.13 µM (active)
IC50 [8]: 12.7 µM (active)
CC50 [9]: > 50 µM (active)
AC50 (HeLa): 40 µM (active)
AC50 [10]: 0.169 µM (active)
IC50 [11]: 17.5 µM (active)
EC50 [12]: 25.8 µM (active)
